Assay results as given in ChEMBL document CHEMBL5331052, “Discovery of a novel water-soluble, rapid-release triptolide prodrug with improved drug-like properties and high efficacy in human acute myeloid leukemia” (Eur J Med Chem, 2022).

Assays:
MV4-11 [1] = assay: Antitumor activity against human MV4-11 cells xenografted in BALB/c nude mouse assessed as tumor growth inhibition at 0.5 mg/kg, po measured once every 2 days for 20 days relative to control; type: functional; conditions: MV4-11, 480 h, time 20 day, read-out: TGI
MV4-11 [2] = assay: Antitumor activity against human MV4-11 cells xenografted in BALB/c nude mouse assessed as tumor growth inhibition at 1 mg/kg, po measured once every 2 days for 20 days relative to control; type: functional; conditions: MV4-11, 480 h, time 20 day, read-out: TGI
[3] = AUC (0 to t) in Sprague-Dawley rat at 1.0 mg/kg, po administered via oral gavage and measured upto 24 hrs by LC-MS/MS analysis; type: ADME, organism-based; design: dose 1 mg/kg, time < 24 hrs, route po; conditions: in vivo
[4] = Tmax in Sprague-Dawley rat at 1.0 mg/kg, po administered via oral gavage and measured upto 24 hrs by LC-MS/MS analysis; type: ADME, organism-based; conditions: in vivo
[5] = Cmax in Sprague-Dawley rat at 1.0 mg/kg, po administered via oral gavage and measured upto 24 hrs by LC-MS/MS analysis; type: ADME, organism-based; design: dose 1 mg/kg, time < 24 hrs, route po; conditions: in vivo
THP-1 = assay: Antiproliferative activity against human THP-1 cells assessed as inhibition of cell growth measured after 48 hrs by CCK8 assay; type: functional, cell-based; conditions: THP-1, 48 h
MV4-11 [6] = assay: Antiproliferative activity against human MV4-11 cells assessed as cell growth inhibition measured after 48 hrs by CCK8 assay; type: functional, cell-based; conditions: MV4-11, 48 h
MV4-11 [7] = assay: Antitumor activity against human MV4-11 cells xenografted in BALB/c nude mouse assessed as tumor growth inhibition at 180 microg/kg/day, IG measured everyday for 11 days relative to control; type: functional; conditions: MV4-11, po, 264 h, at 180 µg/kg/day, time 11 day, read-out: TGI
[8] = Chemical stability of the compound in water assessed as parent compound remaining at 2 mg/ml measured immediately by HPLC analysis; type: physicochemical; conditions: read-out: Stability
[9] = Aqueous solubility of compound at 1 to 10 mg/ml by HPLC analysis; type: physicochemical; conditions: water; dose 1-10 mg/ml
[10] = Chemical stability of the compound in water assessed as parent compound remaining at 2 mg/ml measured after 4 hrs by HPLC analysis; type: physicochemical; conditions: read-out: Stability
[11] = Prodrug conversion in Sprague-Dawley rat plasma assessed as triptolide release at 50 ug/ml measured after 30 mins by HPLC analysis; type: ADME, cell-free; conditions: 0.5 h, dose 50 µg/ml

Compound: CCc1nc(C(N)=O)c(Nc2ccc(N3CCC(N4CCN(C)CC4)CC3)c(OC)c2)nc1NC1CCOCC1 [GILTERITINIB]
- inhibition in vivo at 0.5 mg/kg (MV4-11 [1]): 48.3%
- inhibition in vivo at 1 mg/kg (MV4-11 [2]): 72%

Compound: CC(C)[C@]12O[C@H]1[C@@H]1O[C@]13[C@]1(O[C@H]1C[C@H]1C4=C(CC[C@@]13C)C(=O)OC4)[C@@H]2O [TRIPTOLIDE]
- AUC(0-t) at 24 h [3]: 31.9 ng·h/mL
- Tmax [4]: 26.4 min
- Cmax [5]: 15.9 ng/mL
- IC50 (THP-1): 7.04 nM
- IC50 (MV4-11 [6]): 12 nM
- inhibition in vivo at 0.18 mg/kg/day (MV4-11 [7]): 91.5%

Compound: CC(C)[C@]12O[C@H]1[C@@H]1O[C@]13[C@]1(O[C@H]1C[C@H]1C4=C(CC[C@@]13C)C(=O)OC4)[C@@H]2OC(=O)COC(=O)CN1CCN(C)CC1.Cl
- remaining at 0 h, 2 mg/ml [8]: 96.8%
- solubility [9]: 3820 µg/mL
- remaining at 4 h, 2 mg/ml [10]: 96.7%
- Drug metabolism [11]: Metabolite_Detected
